Experimental data as given in ChEMBL document CHEMBL1157429, “Design of a fluorescence polarization assay platform for the study of human Hsp70” (Bioorg Med Chem Lett, 2008).
Active and inactive are the calls of the source. The calls are words filed in the database; no cut-off is given here.

What was measured:
[1] = species on record: Homo sapiens; assay: Binding affinity to human Hsp70 assessed as activation of single-turnover ATPase activity at 8 uM
[2] = molecular target: Heat shock protein HSP90 (Homo sapiens) (UniProt P07900+P08238); assay: Binding affinity to human recombinant Hsp90 by fluorescence polarization assay; type: protein assay
[3] = species on record: Homo sapiens; assay: Decrease in binding affinity to human recombinant Hsp70 at 5 nM by fluorescence polarization assay in presence of ATP
[4] = Binding affinity to human recombinant Hsp70 after 24 hrs by fluorescence polarization assay
[5] = Binding affinity to Escherichia coli Hsp70 by fluorescence polarization assay

| SMILES | Activity [1] | Activity [2] | Activity [3] | Kd [4] | Kd [5] |
| --- | --- | --- | --- | --- | --- |
| CC(C)C[C@H](NC(=O)[C@H](C)NC(=O)CCCCCNC(=S)Nc1ccc(-c2c3ccc(=O)cc-3oc3cc(O)ccc23)c(C(=O)O)c1)C(=O)N[C@@H](CC(C)C)C(=O)N[C@@H](CC(C)C)C(=O)N[C@@H](CO)C(=O)N[C@@H](C)C(=O)N1CCC[C@H]1C(=O)N[C@@H](CCCNC(=N)N)C(=O)N[C@@H](CCCNC(=N)N)C(=O)O | Dose-dependent effect | inactive | Active | 0.426 µM |  |
| CC(C)C[C@H](NC(=O)[C@H](C)N)C(=O)N[C@@H](CC(C)C)C(=O)N[C@@H](CC(C)C)C(=O)N[C@@H](CO)C(=O)N[C@@H](C)C(=O)N1CCC[C@H]1C(=O)N[C@@H](CCCNC(=N)N)C(=O)N[C@@H](CCCNC(=N)N)C(=O)O |  |  |  |  | 0.4 µM |
